Measured values from patent US20250066335A1, “POLYSUBSTITUTED 4-HYDROXYPYRIDINE AND 4-HYDROXYQUINOLINE DERIVATIVES AS GPR84 ANTAGONISTS” (UNIVERSITY OF COPENHAGEN, priority 2021, published 2025).

Target: T1, GPR84 (Homo sapiens, UniProt Q9NQS5)
T1 construct: expressed in transfected cells; host or cells: HTLA cells (HEK293 line stably expressing a tTA-dependent luciferase reporter and a β-arrestin2-TEV fusion gene), transiently transfected with PEI
Assay: PRESTO-Tango β-arrestin2 recruitment assay, GPR84 antagonistic activity
Assay type: cell-based
Conditions: antagonist activity in the Presto-TANGO assay; inhibition of the response from the agonist ZQ-16 (100 nM); HTLA cells
Protocol: PRESTO-Tango β-arrestin recruitment assay (W.K. Kroeze et al., 2015). HTLA cells (a HEK293 cell line stably expressing a tTA-dependent luciferase reporter and a β-arrestin2-TEV fusion gene) were maintained in Dulbecco's Modified Eagle's Medium (DMEM) supplemented with 10% Fetal Bovine Serum (dFBS), 100 U/mL penicillin and 100 μg/mL streptomycin, 2 μg/mL puromycin and 100 μg/mL hygromycin B in a humidified atmosphere at 37° C. in 5% CO2. For transfection, cells were plated at 9×10^6 to 10×10^6 cells per 15-cm cell-culture dish (day 1). The following day (day 2), cells were transfected by adding 5 μg DNA and 15 μg polyethylenimine (PEI) diluted in 1 mL Opti-MEM (Reduced Serum Medium supplied by ThermoFisher). On day 3, transfected cells were transferred at 25000 cells per well in 40 μl of medium into poly-l-lysine-coated and rinsed 384-well white, clear-bottomed cell-culture plates (Greiner Bio-One). On day 4, dilutions of the ligands to be tested were prepared in 1% dFBS DMEM and 10 μL were added to each well. On day 5, 20 μl per well of Bright-Glo solution (Promega) diluted 10-fold in assay buffer (Hanks' Balanced Salt Solution [HBSS], 20 mM HEPES, 1 mM CaCl2, 1 mM MgCl2, pH adjusted to 7.4 by 5 M NaOH) was added to each well. After incubation for 20 min at room temperature, luminescence was counted in an Enspire luminescence counter at 384 nm. Results in the form of relative luminescence units (RLU) were exported into Excel spreadsheets, and GraphPad Prism was used for analysis of data. To measure constitutive activity, no ligand was added on day 4.
The GPR84 antagonistic activity of the compounds was determined using the PRESTO-Tango β-arrestin2 recruitment assay (Assay I, see assays above), from which the concentration of each compound required for 50% inhibition (IC50) of the response from the agonist ZQ-16 (100 nM) was determined. The antagonistic activity for each compound is given in Table 1 as the pIC50, which is the negative log of the IC50 value when converted to molar.

T1 sequence (Q9NQS5 whole entry, the tested form may be a part): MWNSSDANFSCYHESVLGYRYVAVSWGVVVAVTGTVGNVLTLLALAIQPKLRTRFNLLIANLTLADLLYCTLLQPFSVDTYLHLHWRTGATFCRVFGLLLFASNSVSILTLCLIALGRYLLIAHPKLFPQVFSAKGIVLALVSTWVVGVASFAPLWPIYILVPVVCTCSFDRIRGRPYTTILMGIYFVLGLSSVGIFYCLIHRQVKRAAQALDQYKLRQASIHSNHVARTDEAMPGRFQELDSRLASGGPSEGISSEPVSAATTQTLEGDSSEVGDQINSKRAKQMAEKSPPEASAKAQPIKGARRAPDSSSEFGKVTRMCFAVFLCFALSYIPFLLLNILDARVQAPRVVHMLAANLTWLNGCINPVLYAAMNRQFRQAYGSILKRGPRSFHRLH

SMILES	IC50 [nM]
CCOc1ccc(CCc2nc(OCC3COCCO3)cc(O)c2CC)cc1 (centres unmarked) [Example 26, 6-((1,4-Dioxan-2-yl)methoxy)-2-(4-ethoxyphenethyl)-3-ethylpyridin-4-ol]	0.389
CCCc1ccc(CCc2nc(OCC3CCCCO3)cc(O)c2Br)cc1 (centres unmarked) [Example 1, 3-bromo-2-(4-propylphenethyl)-6-((tetrahydro-2H-pyran-2-yl)methoxy)pyridin-4-ol]	3.02
CCOc1ccc(CCc2nc(OCC3COCCO3)cc(O)c2CC)cn1 (centres unmarked) [Example 49, 6-((1,4-Dioxan-2-yl)methoxy)-2-(2-(6-ethoxypyridin-3-yl)ethyl)-3-ethylpyridin-4-ol]	0.501
[2H]C([2H])([2H])C([2H])([2H])Oc1ccc(C([2H])([2H])C([2H])([2H])c2nc(OCC3COCCO3)cc(O)c2CC)cc1 (centres unmarked) [Example 44, 6-((1,4-Dioxan-2-yl)methoxy)-2-(2-(4-(ethoxy-d5)phenyl)ethyl-1,1,2,2-d4)-3-ethylpyridin-4-ol]	0.209
CCc1c(O)cc(OCC2COCCO2)nc1CCc1ccc(OCc2nc(C(=O)O)co2)cc1 (centres unmarked) [Example 48, 2-((4-(2-(6-((1,4-Dioxan-2-yl)methoxy)-3-ethyl-4-hydroxypyridin-2-yl)ethyl)phenoxy)methyl)oxazole-4-carboxylic acid]	5.37
CCOc1ccc(CCc2nc(OCC3COCCO3)cc(O)c2C)cc1 (centres unmarked) [Example 23, 6-((1,4-Dioxan-2-yl)methoxy)-2-(4-ethoxyphenethyl)-3-methylpyridin-4-ol]	3.31
CCCc1ccc(CCc2nc(OCC3CCCCO3)cc(O)c2C(C)C)cc1 (centres unmarked) [Example 8, 3-Isopropyl-2-(4-propylphenethyl)-6-((tetrahydro-2H-pyran-2-yl)methoxy)pyridin-4-ol]	81.3
CCCc1ccc(CCc2nc(OCC3CCCCO3)cc(O)c2-c2ccccc2C)cc1 (centres unmarked) [Example 9, 2-(4-Propylphenethyl)-6-((tetrahydro-2H-pyran-2-yl)methoxy)-3-(o-tolyl)pyridin-4-ol]	389
CCc1c(O)cc(OCC2COCCO2)nc1CCc1ccc(OCc2nc(C(=O)OC)co2)cc1 (centres unmarked) [Example 41, Methyl 2-((4-(2-(6-((1,4-dioxan-2-yl)methoxy)-3-ethyl-4-hydroxypyridin-2-yl)ethyl)phenoxy)methyl)oxazole-4-carboxylate]	0.759
CC(=O)NCCOc1ccc(CCc2nc(OCC3COCCO3)cc(O)c2C)cc1 (centres unmarked) [Example 31, N-(2-(4-(2-(6-((1,4-dioxan-2-yl)methoxy)-4-hydroxy-3-methylpyridin-2-yl)ethyl)phenoxy)ethyl)acetamide]	17.8
CCCc1ccc(CCc2nc(OCC3CCCCO3)cc(O)c2CCC(=O)O)cc1 (centres unmarked) [Example 14, Sodium 3-(4-hydroxy-2-(4-propylphenethyl)-6-((tetrahydro-2H-pyran-2-yl)methoxy)pyridin-3-yl)propanoate]	1.12
CCCc1ccc(CCc2nc(OCC3CCCCO3)cc(O)c2-c2ccc(O)cc2)cc1 (centres unmarked) [Example 17, 3-(4-Hydroxyphenyl)-2-(4-propylphenethyl)-6-((tetrahydro-2H-pyran-2-yl)methoxy)pyridin-4-ol]	93.3
CCOc1ccc(-c2ccc3c(O)cc(OCC4CCCCO4)nc3c2)cc1 (centres unmarked) [Example 5, 7-(4-Ethoxyphenyl)-2-((tetrahydro-2H-pyran-2-yl)methoxy)quinolin-4-ol]	724
CCOc1ncc(CCc2nc(OCC3COCCO3)cc(O)c2CC)cc1F (centres unmarked) [Example 50, 6-((1,4-Dioxan-2-yl)methoxy)-2-(2-(6-ethoxy-5-fluoropyridin-3-yl)ethyl)-3-ethylpyridin-4-ol]	1.29
CCCc1ccc(CCc2nc(OCC3CCCCO3)cc(O)c2-c2ccccc2)cc1 (centres unmarked) [Example 3, 3-Phenyl-2-(4-propylphenethyl)-6-((tetrahydro-2H-pyran-2-yl)methoxy)pyridin-4-ol]	85.1
CCc1c(O)cc(OCC2COCCO2)nc1CCc1ccc(OCCN2C(=O)c3ccccc3C2=O)cc1 (centres unmarked) [Example 42, 2-(2-(4-(2-(6-((1,4-Dioxan-2-yl)methoxy)-3-ethyl-4-hydroxypyridin-2-yl)ethyl)phenoxy)ethyl)isoindoline-1,3-dione]	0.977
CCCCc1ccc(-c2nc(OC[C@@H]3COCCO3)cc(O)c2CC)cc1 [Example 57, (S)-6-((1,4-dioxan-2-yl)methoxy)-2-(4-butylphenyl)-3-ethylpyridin-4-ol]	120
CCOc1ccc(CCc2nc(OC[C@@H]3COCCO3)cc(O)c2C)cc1 [Example 24, (S)-6-((1,4-dioxan-2-yl)methoxy)-2-(4-ethoxyphenethyl)-3-methylpyridin-4-ol]	1.07
CCCc1ccc(CCc2nc(OCC3CCCCO3)cc(O)c2/C=C/C(=O)OCC)cc1 (centres unmarked) [Example 12, Ethyl (E)-3-(4-hydroxy-2-(4-propylphenethyl)-6-((tetrahydro-2H-pyran-2-yl)methoxy)pyridin-3-yl)acrylate]	21.9
CCc1c(O)cc(OCC2COCCO2)nc1CCc1ccc(OCCOCCNC(=O)OC(C)(C)C)cc1 (centres unmarked) [Example 34, tert-Butyl (2-(2-(4-(2-(6-((1,4-dioxan-2-yl)methoxy)-3-ethyl-4-hydroxypyridin-2-yl)ethyl)phenoxy)ethoxy)ethyl)carbamate]	0.331
CCc1c(O)cc(OCC2COCCO2)nc1CCc1ccc(OCCCNC(=O)OC(C)(C)C)cc1 (centres unmarked) [Example 33, tert-Butyl (3-(4-(2-(6-((1,4-dioxan-2-yl)methoxy)-3-ethyl-4-hydroxypyridin-2-yl)ethyl)phenoxy)propyl)carbamate]	0.302
CCc1c(O)cc(OC[C@@H]2COCCO2)nc1CCCCc1ccccc1 [Example 56, (S)-6-((1,4-dioxan-2-yl)methoxy)-3-ethyl-2-(4-phenylbutyl)pyridin-4-ol]	23.4
CCc1c(O)cc(OCC2COCCO2)nc1CCc1ccc(OCCNC(=O)OC(C)(C)C)cc1 (centres unmarked) [Example 32, tert-Butyl (2-(4-(2-(6-((1,4-dioxan-2-yl)methoxy)-3-ethyl-4-hydroxypyridin-2-yl)ethyl)phenoxy)ethyl)carbamate]	0.209
